Reference: ChEMBL document CHEMBL1201862, “PubChem BioAssay data set” (2004)
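Cultured in 96-well plates, cells were exposed to test compound for 48 hours across five concentrations. Abbreviation: GI50, concentration required for 50% inhibition of growth.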 Calls of active or inactive are those of the source. No stated cut-off is given here; in the data, active = GI50 up to about 1.1 µM and inactive = higher.

Assays:
Test in all cases: NCI anticancer screen, dose series, 48 h
K562 = test system: K562
SR = test system: SR
MOLT-4 = test system: MOLT-4
EKVX = test system: EKVX
NCI-H23 = test system: NCI-H23
UACC-257 = test system: UACC-257
OVCAR-5 = test system: OVCAR-5
SF-268 = test system: SF-268
SF-295 = test system: SF-295
HT-29 = test system: HT-29
UACC-62 = test system: UACC-62
CAKI-1 = test system: CAKI-1
SF-539 = test system: SF-539
LOX IMVI = test system: LOX IMVI
HOP-62 = test system: HOP-62
SK-MEL-28 = test system: SK-MEL-28
IGROV-1 = test system: IGROV-1
OVCAR-8 = test system: OVCAR-8
A498 = test system: A498
UO-31 = test system: UO-31

| SMILES | GI50 (K562) | GI50 (SR) | GI50 (MOLT-4) | GI50 (EKVX) | GI50 (NCI-H23) | GI50 (UACC-257) | GI50 (OVCAR-5) | GI50 (SF-268) | GI50 (SF-295) | GI50 (HT-29) | GI50 (UACC-62) | GI50 (CAKI-1) | GI50 (SF-539) | GI50 (LOX IMVI) | GI50 (HOP-62) | GI50 (SK-MEL-28) | GI50 (IGROV-1) | GI50 (OVCAR-8) | GI50 (A498) | GI50 (UO-31) |
| --- | --- | --- | --- | --- | --- | --- | --- | --- | --- | --- | --- | --- | --- | --- | --- | --- | --- | --- | --- | --- |
| Cc1nn(C(=O)c2ccccc2O)c2c1C(c1ccccc1O)SC(=N)N2 (stereo unspecified) | 3.24 µM (inactive) | 1.95 µM (inactive) | 2.67 µM (inactive) | 9.27 µM (inactive) | 2.94 µM (inactive) | 1.5 µM (inactive) | 6.32 µM (inactive) | 6.81 µM (inactive) | 7.53 µM (inactive) | > 10 µM (inactive) | 3.08 µM (inactive) | 8.07 µM (inactive) | 0.421 µM (active) | 6.1 µM (inactive) | 0.869 µM (active) | > 10 µM (inactive) | 1.01 µM (active) | 2.82 µM (inactive) | – | – |
| O=C(Nc1ccc(F)cc1)c1cc2c(cc1Cl)Sc1nccn1S2(=O)=O | > 100 µM (inactive) | – | > 100 µM (inactive) | > 100 µM (inactive) | – | – | > 100 µM (inactive) | 37.3 µM (inactive) | 28.9 µM (inactive) | > 100 µM (inactive) | – | 30.7 µM (inactive) | 37 µM (inactive) | > 100 µM (inactive) | 34.8 µM (inactive) | 88.5 µM (inactive) | > 100 µM (inactive) | 85.9 µM (inactive) | 23.7 µM (inactive) | – |
| Cc1ccc(P(c2ccc(C)cc2)c2ccc(C)cc2)cc1 | 4.83 µM (inactive) | – | 16.5 µM (inactive) | 28.3 µM (inactive) | 27.9 µM (inactive) | 22.1 µM (inactive) | 21.3 µM (inactive) | 24.3 µM (inactive) | 21.4 µM (inactive) | 19.4 µM (inactive) | 21.6 µM (inactive) | 23.2 µM (inactive) | 21.6 µM (inactive) | 14.9 µM (inactive) | – | 24.5 µM (inactive) | 18.8 µM (inactive) | 18 µM (inactive) | 27.1 µM (inactive) | < 0.01 µM (active) |
| COc1ccc(-c2c(-c3ccccc3)c(C)nc3[nH]c(=S)[nH]c(=S)c23)cc1OC | 31.2 µM (inactive) | – | 12 µM (inactive) | 54.8 µM (inactive) | 47.4 µM (inactive) | 36.6 µM (inactive) | 64.4 µM (inactive) | 23.9 µM (inactive) | 42.1 µM (inactive) | 41 µM (inactive) | 16.1 µM (inactive) | 47 µM (inactive) | 19.8 µM (inactive) | 28.2 µM (inactive) | 33.1 µM (inactive) | 22.1 µM (inactive) | 36.3 µM (inactive) | 42 µM (inactive) | 28.2 µM (inactive) | 21.6 µM (inactive) |
| COC(=O)C1CCCN1C(=O)OC(C)(C)C (stereo unspecified) | > 100 µM (inactive) | > 100 µM (inactive) | 23.3 µM (inactive) | > 100 µM (inactive) | > 100 µM (inactive) | > 100 µM (inactive) | > 100 µM (inactive) | 65.3 µM (inactive) | > 100 µM (inactive) | > 100 µM (inactive) | > 100 µM (inactive) | > 100 µM (inactive) | – | > 100 µM (inactive) | > 100 µM (inactive) | > 100 µM (inactive) | > 100 µM (inactive) | – | – | > 100 µM (inactive) |
| O=c1[nH]c(C2CCCCC2)nc2ccc(Cl)cc12 | > 100 µM (inactive) | > 100 µM (inactive) | > 100 µM (inactive) | > 100 µM (inactive) | > 100 µM (inactive) | > 100 µM (inactive) | > 100 µM (inactive) | > 100 µM (inactive) | > 100 µM (inactive) | > 100 µM (inactive) | > 100 µM (inactive) | – | > 100 µM (inactive) | – | – | > 100 µM (inactive) | 41.3 µM (inactive) | > 100 µM (inactive) | – | 93.3 µM (inactive) |
| Nc1nc(O)c2ncn(C3OC(CO)C(O)C3O)c2n1 (stereo unspecified) | 81.7 µM (inactive) | – | 48.2 µM (inactive) | 10.2 µM (inactive) | 17.4 µM (inactive) | – | 111 µM (inactive) | 74.8 µM (inactive) | 71.6 µM (inactive) | 10.9 µM (inactive) | 13.3 µM (inactive) | 77.1 µM (inactive) | 13.8 µM (inactive) | 52.5 µM (inactive) | 8.63 µM (inactive) | 90.8 µM (inactive) | > 77.4 µM (inactive) | – | 3.81 µM (inactive) | 63.7 µM (inactive) |
| COC1CC(OC2CCC3(C)C(=CCC4C3C(OC(C)=O)C(OC(=O)CC(C)C)C3(C)C(C(C)=O)CCC43O)C2)OC(C)C1OC1CC(OC)C(OC2CC(OC)C(OC3OC(C)C(OC4OC(CO)C(O)C(O)C4O)C(OC)C3O)C(C)O2)C(C)O1 (stereo unspecified) | > 75 µM (inactive) | – | > 75 µM (inactive) | > 75 µM (inactive) | > 75 µM (inactive) | > 75 µM (inactive) | > 75 µM (inactive) | > 75 µM (inactive) | > 75 µM (inactive) | > 75 µM (inactive) | > 75 µM (inactive) | > 75 µM (inactive) | > 75 µM (inactive) | > 75 µM (inactive) | 11.6 µM (inactive) | > 75 µM (inactive) | > 75 µM (inactive) | > 75 µM (inactive) | > 75 µM (inactive) | > 75 µM (inactive) |
| CSc1nc(NCc2ccccc2)c2cnn(COCCO)c2n1 | 40.1 µM (inactive) | 69.7 µM (inactive) | 26.3 µM (inactive) | 21.4 µM (inactive) | 24.5 µM (inactive) | 20.3 µM (inactive) | > 100 µM (inactive) | 43.8 µM (inactive) | 35.5 µM (inactive) | 37.8 µM (inactive) | 43.9 µM (inactive) | 61.9 µM (inactive) | > 100 µM (inactive) | 38.6 µM (inactive) | > 100 µM (inactive) | – | 40.7 µM (inactive) | 42.7 µM (inactive) | – | 35.9 µM (inactive) |
| Cc1cn(C2CC(N(O)Cc3ccccc3)C(CO)O2)c(=O)[nH]c1=O (stereo unspecified) | > 100 µM (inactive) | > 100 µM (inactive) | > 100 µM (inactive) | > 100 µM (inactive) | > 100 µM (inactive) | > 100 µM (inactive) | > 100 µM (inactive) | > 100 µM (inactive) | > 100 µM (inactive) | > 100 µM (inactive) | > 100 µM (inactive) | – | > 100 µM (inactive) | > 100 µM (inactive) | > 100 µM (inactive) | > 100 µM (inactive) | > 100 µM (inactive) | > 100 µM (inactive) | – | > 100 µM (inactive) |
| Cc1cc(O)c2c(c1)C(=O)c1c(c(O)cc(O)c1-c1c(O)cc(O)c3c1C(=O)c1cc(C)cc(O)c1C3=O)C2=O [SKYRIN] | 7.87 µM (inactive) | – | 8.59 µM (inactive) | 11.9 µM (inactive) | 13.1 µM (inactive) | 17.5 µM (inactive) | 38 µM (inactive) | 13.9 µM (inactive) | 9.25 µM (inactive) | 13.1 µM (inactive) | 10.4 µM (inactive) | 16.8 µM (inactive) | 10.6 µM (inactive) | 12.9 µM (inactive) | 12.4 µM (inactive) | 11.7 µM (inactive) | 12.9 µM (inactive) | 8.26 µM (inactive) | 14.4 µM (inactive) | 5.26 µM (inactive) |
| COc1ccc2c(c1)C(=O)CC(C(N)=O)C2 (stereo unspecified) | > 100 µM (inactive) | > 100 µM (inactive) | > 100 µM (inactive) | > 100 µM (inactive) | > 100 µM (inactive) | > 100 µM (inactive) | > 100 µM (inactive) | > 100 µM (inactive) | > 100 µM (inactive) | > 100 µM (inactive) | > 100 µM (inactive) | > 100 µM (inactive) | – | > 100 µM (inactive) | > 100 µM (inactive) | > 100 µM (inactive) | > 100 µM (inactive) | > 100 µM (inactive) | – | > 100 µM (inactive) |
| CCOC(=O)C1Nc2ccc([N+](=O)[O-])cc2[C@H]2OCC[C@@H]12 (stereo partly specified) | > 100 µM (inactive) | – | > 100 µM (inactive) | > 100 µM (inactive) | > 100 µM (inactive) | > 100 µM (inactive) | > 100 µM (inactive) | > 100 µM (inactive) | > 100 µM (inactive) | > 100 µM (inactive) | > 100 µM (inactive) | > 100 µM (inactive) | > 100 µM (inactive) | > 100 µM (inactive) | > 100 µM (inactive) | > 100 µM (inactive) | > 100 µM (inactive) | > 100 µM (inactive) | > 100 µM (inactive) | – |
| Cc1nc(C)c(C(=O)NNC(=O)C[N+](C)(C)C)cc1C(=O)NNC(=O)C[N+](C)(C)C | – | – | – | > 100 µM (inactive) | > 100 µM (inactive) | > 100 µM (inactive) | > 100 µM (inactive) | > 100 µM (inactive) | > 100 µM (inactive) | > 100 µM (inactive) | > 100 µM (inactive) | > 100 µM (inactive) | > 100 µM (inactive) | > 100 µM (inactive) | > 100 µM (inactive) | > 100 µM (inactive) | > 100 µM (inactive) | > 100 µM (inactive) | > 100 µM (inactive) | > 100 µM (inactive) |
| CC1NCCc2c1[nH]c1cc(O)ccc21 (stereo unspecified) | > 100 µM (inactive) | – | > 100 µM (inactive) | > 100 µM (inactive) | > 100 µM (inactive) | > 100 µM (inactive) | > 100 µM (inactive) | > 100 µM (inactive) | > 100 µM (inactive) | > 100 µM (inactive) | > 100 µM (inactive) | > 100 µM (inactive) | > 100 µM (inactive) | > 100 µM (inactive) | > 100 µM (inactive) | > 100 µM (inactive) | > 100 µM (inactive) | > 100 µM (inactive) | > 100 µM (inactive) | > 100 µM (inactive) |
